18 compounds from ChEMBL document CHEMBL3603804, “Cyclin dependent kinase (CDK) inhibitors as anticancer drugs” (Bioorg Med Chem Lett, 2015) can be followed below.

Molecules are shown by their SMILES.

One series has as its system MDA-MB-468. The experiment in a line: Antiproliferative activity against Rb-negative human MDA-MB-468 cells assessed as inhibition of [14C]-thymidine incorporation into DNA preincubated for 24 hrs followed by [14C]-thymidine addition measured after 72 hrs by beta plate counting analysis. Format: cell-based. In general terms: Incorporation of labelled thymidine or its analogues reports DNA synthesis.

The target in the next series is Carbonic anhydrase 2 (Homo sapiens, UniProt P00918). The experiment in a line: Inhibition of carbonic anhydrase-2 (unknown origin).
The target of series [1] is Vascular endothelial growth factor receptor 2 (Homo sapiens, UniProt P35968). The experiment in a line: Inhibition of VEGFR2 (unknown origin).
Sequence of Vascular endothelial growth factor receptor 2 (P35968 whole entry, the tested form may be a part): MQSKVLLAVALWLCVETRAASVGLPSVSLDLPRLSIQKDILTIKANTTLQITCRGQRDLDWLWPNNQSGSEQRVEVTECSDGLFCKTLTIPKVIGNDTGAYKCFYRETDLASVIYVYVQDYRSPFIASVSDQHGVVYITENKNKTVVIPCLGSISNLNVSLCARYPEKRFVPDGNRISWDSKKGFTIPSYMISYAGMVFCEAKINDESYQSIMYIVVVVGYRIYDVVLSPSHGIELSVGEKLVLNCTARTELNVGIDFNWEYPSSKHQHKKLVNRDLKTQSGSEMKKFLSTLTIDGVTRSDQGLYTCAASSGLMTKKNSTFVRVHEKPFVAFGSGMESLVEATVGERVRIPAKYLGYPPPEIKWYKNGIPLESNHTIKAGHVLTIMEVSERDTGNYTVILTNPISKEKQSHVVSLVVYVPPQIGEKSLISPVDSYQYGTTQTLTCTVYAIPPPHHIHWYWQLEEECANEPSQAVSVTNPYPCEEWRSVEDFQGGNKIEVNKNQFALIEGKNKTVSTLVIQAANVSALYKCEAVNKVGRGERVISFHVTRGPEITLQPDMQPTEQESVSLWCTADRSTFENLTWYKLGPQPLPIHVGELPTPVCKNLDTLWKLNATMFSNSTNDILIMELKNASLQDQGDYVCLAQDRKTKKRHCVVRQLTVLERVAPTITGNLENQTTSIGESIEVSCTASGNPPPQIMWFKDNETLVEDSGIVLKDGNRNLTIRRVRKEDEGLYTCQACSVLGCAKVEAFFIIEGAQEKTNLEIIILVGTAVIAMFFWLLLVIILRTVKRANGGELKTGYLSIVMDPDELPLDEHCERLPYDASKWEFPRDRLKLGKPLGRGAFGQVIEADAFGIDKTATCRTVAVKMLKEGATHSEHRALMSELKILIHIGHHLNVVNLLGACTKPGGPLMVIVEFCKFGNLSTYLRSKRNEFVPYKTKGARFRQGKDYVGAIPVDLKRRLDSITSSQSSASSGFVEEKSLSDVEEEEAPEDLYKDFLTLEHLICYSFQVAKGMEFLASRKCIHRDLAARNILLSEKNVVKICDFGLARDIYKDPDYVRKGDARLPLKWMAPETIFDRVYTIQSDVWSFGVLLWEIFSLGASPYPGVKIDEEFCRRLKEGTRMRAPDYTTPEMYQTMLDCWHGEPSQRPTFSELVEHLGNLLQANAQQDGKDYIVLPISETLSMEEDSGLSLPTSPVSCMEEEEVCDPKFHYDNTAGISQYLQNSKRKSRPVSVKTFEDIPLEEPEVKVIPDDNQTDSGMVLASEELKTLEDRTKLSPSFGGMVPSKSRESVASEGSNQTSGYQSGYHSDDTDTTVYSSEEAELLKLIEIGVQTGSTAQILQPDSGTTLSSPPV
The target of series [2] is T1, Cyclin-dependent kinase 1/cyclin B1 (Homo sapiens, UniProt P06493). Nature of the series: Inhibition of recombinant CDK1/GST-fused cyclin B (unknown origin) expressed in baculovirus infected insect Sf9 cells by substrate phosphorylation assay in presence of [33P]-gamma adenosine triphosphate.
T1 sequence (P06493 whole entry, the tested form may be a part): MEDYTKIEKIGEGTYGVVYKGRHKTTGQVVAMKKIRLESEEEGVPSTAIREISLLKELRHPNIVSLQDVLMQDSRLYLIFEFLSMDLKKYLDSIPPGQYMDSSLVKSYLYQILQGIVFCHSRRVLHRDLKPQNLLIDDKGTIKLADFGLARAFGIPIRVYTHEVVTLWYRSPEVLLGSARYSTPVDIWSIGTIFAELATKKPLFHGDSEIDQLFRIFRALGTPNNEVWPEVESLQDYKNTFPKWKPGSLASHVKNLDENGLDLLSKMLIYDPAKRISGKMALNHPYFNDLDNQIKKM
T1 sequence (P14635 whole entry, further chain, the tested form may be a part): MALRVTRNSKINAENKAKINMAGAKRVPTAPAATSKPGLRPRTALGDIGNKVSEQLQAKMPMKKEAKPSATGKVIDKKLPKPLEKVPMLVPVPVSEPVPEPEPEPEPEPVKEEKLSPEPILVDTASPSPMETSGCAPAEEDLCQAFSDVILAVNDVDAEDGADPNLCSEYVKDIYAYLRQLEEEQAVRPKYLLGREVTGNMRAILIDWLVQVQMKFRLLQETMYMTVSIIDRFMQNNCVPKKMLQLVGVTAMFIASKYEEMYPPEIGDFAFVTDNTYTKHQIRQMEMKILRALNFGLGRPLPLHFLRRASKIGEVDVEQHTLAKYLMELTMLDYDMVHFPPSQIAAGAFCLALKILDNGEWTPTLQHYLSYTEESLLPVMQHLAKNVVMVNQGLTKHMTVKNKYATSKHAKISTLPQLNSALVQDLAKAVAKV
For the next series, the system named is MCF7. Nature of the series: Cytotoxicity against human MCF7 cells assessed as growth inhibition after 96 hrs. It is filed as functional, cell-based. Particulars: MCF7, 96 h.
The target in series [3] is T2, Cyclin-dependent kinase 2/cyclin E1 (Homo sapiens, UniProt P24941). Nature of the series: Inhibition of recombinant CDK2/GST-fused cyclin E (unknown origin) expressed in baculovirus infected insect Sf9 cells by substrate phosphorylation assay in presence of [33P]-gamma adenosine triphosphate.
Series [4] has as its target T1, Cyclin-dependent kinase 1/cyclin B1. Format: protein-complex assay.
Description: Inhibition of human CDK1/cyclin B1 (unknown origin)
Series [5] deals with T3, Cyclin-dependent kinase 4/cyclin D1 (Homo sapiens, UniProt P11802). Nature of the series: Inhibition of human CDK4/cyclin D1 expressed in insect cells assessed as phosphorylation of CTRF after 50 mins by microplate scintillation counter.
T3 sequence (P11802 whole entry): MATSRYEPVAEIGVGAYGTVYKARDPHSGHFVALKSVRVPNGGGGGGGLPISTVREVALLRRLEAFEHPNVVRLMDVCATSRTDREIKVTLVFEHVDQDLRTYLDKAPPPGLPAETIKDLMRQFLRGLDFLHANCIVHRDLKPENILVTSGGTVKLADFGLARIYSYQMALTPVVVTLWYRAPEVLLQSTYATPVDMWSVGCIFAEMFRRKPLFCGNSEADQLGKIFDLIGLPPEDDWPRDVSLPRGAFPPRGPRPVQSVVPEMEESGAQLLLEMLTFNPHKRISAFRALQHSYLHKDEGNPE
T3 sequence (P24385 whole entry, further chain): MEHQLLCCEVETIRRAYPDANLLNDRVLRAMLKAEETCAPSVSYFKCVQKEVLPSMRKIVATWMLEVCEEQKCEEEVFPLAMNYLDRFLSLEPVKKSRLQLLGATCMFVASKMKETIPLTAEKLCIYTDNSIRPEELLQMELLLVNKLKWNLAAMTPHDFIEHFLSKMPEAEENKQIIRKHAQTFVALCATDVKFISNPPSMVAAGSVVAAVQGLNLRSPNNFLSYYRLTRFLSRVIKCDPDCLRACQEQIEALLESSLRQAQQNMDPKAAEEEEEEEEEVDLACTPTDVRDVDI
The target of series [6] is T2, Cyclin-dependent kinase 2/cyclin E1. The experiment in a line: Inhibition of CDK2/cyclin E (unknown origin) expressed in baculovirus infected insect Sf9 cells assessed as inhibition of GST-tagged Rb phosphorylation after 30 mins in presence of [33P]-ATP.
Series [7] concerns the target T3, Cyclin-dependent kinase 4/cyclin D1. The experiment in a line: Inhibition of CDK4/cyclin D1 (unknown origin) expressed in baculovirus infected insect Sf9 cells assessed as inhibition of GST-tagged Rb phosphorylation after 30 mins in presence of [33P]-ATP.
In another series the test system is HCT-116. Nature of the series: Cytotoxicity against human HCT116 cells assessed as growth inhibition after 3 days by MTT assay. Format: functional, cell-based. Particulars: HCT-116, 72 h. For orientation: Tetrazolium dyes change colour on reduction, which living cells bring about.
A short description of series [8]: Chemical stability of the compound in phosphate buffer assessed as remaining compound at pH 1.2 at 37 degC after 3 hrs. It is filed as physicochemical. As to conditions: read-out: Stability.
For series [9], the target named is T4, Cyclin-dependent kinase 4/6 (Homo sapiens, UniProt P11802+Q00534). The experiment in a line: Inhibition of CDK4/6 in human COLO205 cells assessed as inhibition of Rb phosphorylation after 24 hrs by propidium iodide staining-based laser-scanning fluorescence microplate cytometric analysis. It is filed as cell-based. As to conditions: colo 205.
T4 sequence (P11802 whole entry, looked up): as the sequence (P11802 whole entry) above
T4 sequence (Q00534 whole entry, looked up): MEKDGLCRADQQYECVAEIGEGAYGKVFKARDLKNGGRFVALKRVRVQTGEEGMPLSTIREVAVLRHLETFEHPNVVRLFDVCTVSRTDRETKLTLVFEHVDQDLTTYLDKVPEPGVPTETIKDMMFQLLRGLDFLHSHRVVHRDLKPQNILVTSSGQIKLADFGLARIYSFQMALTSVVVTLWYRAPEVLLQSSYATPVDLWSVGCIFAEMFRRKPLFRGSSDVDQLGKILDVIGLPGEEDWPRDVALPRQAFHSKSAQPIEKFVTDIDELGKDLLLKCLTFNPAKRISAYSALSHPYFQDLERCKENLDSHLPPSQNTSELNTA
The target of series [10] is T4, Cyclin-dependent kinase 4/6. The experiment in a line: Inhibition of CDK4/6 in human COLO205 cells assessed as maximum cell cycle arrest at G1 phase after 24 hrs by propidium iodide staining-based flow cytometric analysis. As to conditions: COLO 205.
The target in series [11] is T5, Cyclin-dependent kinase 2/cyclin A (Homo sapiens, UniProt P24941). The experiment in a line: Non-competitive inhibition of human CDK2/cyclinA using PKTPKKAKKL as substrate in presence of ATP. Format: protein-complex assay.
The next series has as its system MDA-MB-231. The experiment in a line: Cytotoxicity against human MDA-MB-231 cells. Format: functional, cell-based.
A further series relates to Jurkat. Nature of the series: Cytotoxicity against human Jurkat cells assessed as cell viability after 72 hrs by resazurin assay. Format: functional, cell-based. For orientation: The colour change of resazurin is a common sign of viable cells or microbes.
The target in series [12] is T5, Cyclin-dependent kinase 2/cyclin A. Nature of the series: Competitive inhibition of human CDK2/cyclinA using PKTPKKAKKL as substrate in presence of ATP. Format: protein-complex assay.

Consider `CC(=O)c1c(C)c2cnc(Nc3ccc(N4CCNCC4)cn3)nc2n(C2CCCC2)c1=O` [PALBOCICLIB], for which the IC50 in the series with MDA-MB-468 was > 3000 nM.
For the compound `C[C@@H](O)[C@@H](C)Nc1nc(Nc2ccc([S+](N)[O-])cc2)ncc1Br` (stereo partly drawn), the 50% inhibitory concentration (IC50) is 403 nM at Carbonic anhydrase 2; 59 nM in series [1]; 10 nM in series [2]; 30 nM in the series with MCF7; 10 nM in series [3].
As to `C[C@@H](O)[C@@H](C)Oc1nc(Nc2ccc([S@](=N)(=O)C3CC3)cc2)ncc1C(F)(F)F` [RONICICLIB], the IC50 against Carbonic anhydrase 2 is > 10000 nM.
As to `COc1ccc(Nc2nccc(-c3ccc4nc(C)n(C(C)C)c4c3)n2)cc1`, the IC50 in series [4] and in [5] was 4 nM each time.
Take `CC(C)(C)c1cc2c(N/N=C/c3nccs3)ncnc2s1`: the IC50 in series [6] worked out at 200 nM; in series [7], 41 nM; in the series on HCT-116, 419 nM. Also, the remaining at 3 h in series [8] was determined as 79%.
For the compound `Cc1nc2ccc(-c3ccnc(Nc4ccc(CN5CCN(C(C)C)CC5)cn4)n3)cc2n1C(C)C`, the IC50 in series [4] came out at 1010 nM; in [9] it was 89 nM; in series [5], 2 nM. For the same compound, the INH in [10] is 2.2 µM.
In the case of `CC(Nc1cc(N2CCOCC2)ccc1[N+](=O)[O-])C12CC3CC(CC(C3)C1)C2` (stereo not drawn), the IC50 in series [11] was 27000 nM; in the series on MDA-MB-231, > 50000 nM.
On to `C#CCNc1nc(Nc2ccccc2)ncc1Br`, for which the figures for the IC50 (in series [2]; in the series with MCF7; in series [3]) were 100 nM, 4000 nM and 100 nM, respectively.
Turning to `CN(C)C/C=C/C(=O)Nc1ccc(C(=O)Nc2cccc(Nc3ncc(Cl)c(-c4c[nH]c5ccccc45)n3)c2)cc1`, the IC50 in the series with Jurkat was 50 nM.
As to `N[S+]([O-])c1ccc(/N=N/c2ccc(O)[nH]c2=O)cc1` (stereo not drawn), the concentration for half-maximal inhibition (IC50) in series [12] was 45000 nM.
`CC(N)c1csc(/C=N/Nc2ncnc3sc(C(C)(C)C)cc23)n1` (stereo not drawn): the IC50 in [6] came to 830 nM; in [7], 19 nM; in the series on HCT-116 it was 177 nM. Moreover, the remaining at 3 h in series [8] is 81%.
For the compound `Cc1nc2ccc(-c3ccnc(Nc4ccc(N5CCNCC5)cn4)n3)cc2n1C(C)C`, the IC50 in series [4] turned out to be 222 nM; in [9], 42 nM; in series [5], 2 nM. The INH in [10] was 0.2 µM.
For the compound `CC1=C(C(=O)OC2CCCCC2)C(c2ccc([N+](=O)[O-])cc2)C2=C(CC(C)(C)CC2=O)N1` (stereo not drawn), the IC50 in [11] came out at 71000 nM; in the series on MDA-MB-231 it was 4000 nM.
Consider `C[C@@H](O)[C@@H](C)Oc1nc(Nc2ccc([S+](N)[O-])cc2)ncc1Br` (stereo partly drawn), for which the IC50 in series [1] was 122 nM; in series [2] it was 4 nM; in the series with MCF7 it was 48 nM; in series [3], 9 nM.
On to `C[C@@H](O)[C@@H](C)Oc1nc(Nc2ccc(S(=N)(=O)C3CC3)cc2)ncc1C(F)(F)F` (stereo partly drawn) [RONICICLIB], for which the IC50 in the series with MCF7 was found to be 15 nM.
Regarding `C[C@H](CO)Nc1nc(Nc2ccc(S(N)(=O)=O)cc2)ncc1Br`, the IC50 was 514 nM at Carbonic anhydrase 2; 34 nM in series [1]; 500 nM in [2]; 266 nM in the series with MCF7; 4 nM in series [3].
In the case of `CC(N)c1csc(/C=N/Nc2ncnc3sc(C(C)C(C)C)cc23)n1` (stereo not drawn), the IC50 in series [6] was determined as 880 nM; in series [7], 22 nM; in the series with HCT-116 it was 315 nM. Further, the remaining at 3 h in series [8] was determined as 83%.
`CC[S@@](=N)(=O)c1ccc(Nc2ncc(Br)c(N[C@H](C)[C@@H](C)O)n2)cc1`: the IC50 against Carbonic anhydrase 2 was > 10000 nM; in series [1] it was 32 nM; in series [2], 3 nM; with MCF7, 44 nM; in [3], 2 nM.

As usually defined, the IC50 is the concentration needed to halve the response being measured.
